Here are results for one compound from US9279803B2, “Method of identifying patients not suitable for high-dose cyclophosphamide treatment” (The Johns Hopkins University, priority 2006, dated 2016).

In the test the test system is white blood cell count (WBC). The following applies: preliminary results. The method, then: Additionally, ALDH levels in the target peripheral lymphocytes of high-dose cyclophosphamide treatment may render those cells resistant to cyclophosphamide and can lead to worsened clinical outcome or disease relapse. In a series of multiple sclerosis (MS) patients, blood was analyzed to determine the relative levels of aldehyde dehydrogenease. The banked blood was obtained from MS patients prior to treatment with high-dose cyclophosphamide.

As for `O=P1(N(CCCl)CCCl)NCCCO1` (centres unmarked) [cyclophosphamide], where the note is “MS patient who did not respond and relapsed, higher ALDH activity in banked blood”, the “nadir WBC following high-dose cyclophosphamide treatment” value came out at 24. In addition, the “WBC reached following high-dose cyclophosphamide treatment” value (MS patient who responded, much lower ALDH activity in banked blood) turned out to be 0.
